What was measured:
[1] = test system: spontaneously hypertensive rats; assay: Spontaneously Hypertensive Rat Test (Test 3); assay type: in vivo; conditions: 100 mg/kg body weight, four male spontaneously hypertensive rats, indirect tail-cuff method
Method: Alternatively, one may evaluate the calcium antagonist activity of a test compound by measuring the displacement of nitrendipine to calcium channel antagonist receptors by the test compound according to the methods of Bolger, et al., Biochem. Biophys. Res. Comm., 104(4), 1604-1609 (1982) and Ehlert, et al., Life Sciences, 30, 2191-2202 (1982). In such a test, the amount of specifically-bound nitrendipine to rabbit heart is determined in the presence and absence of test compound. The percent nitrendipine displacement is directly related to the efficacy of the test compound as a calcium antagonist. This assay is described below as the "Nitrendipine Binding Assay". […] Circ. J., 270, 282 (1963). The general techniques for conducting such tests are disclosed in B. Vagnovsky "Automatic Blood-Pressure Measurements in Small Animals", American Laboratory, April, 1973, and "Techniques for the Measurement of Blood Pressure", Institute of Laboratory Animal Resouces NEWS, Vol. XIX (3), G 11-12, Spring, 1976. In this test a group of four male spontaneously hypertensive rats having systolic blood pressures greater than 150 mm Hg are used for each test compound. Systolic blood pressure is measured by the indirect method using a tail-cuff. The compounds are administered at a dose of 100 mg/kg body weight, and the average of the peak decrease in blood pressure is calculated for the four rats. Test results for exemplary compounds of Formula I are provided in Table I below, in which the Rabbit Potassium Depolarized Blood Vessel Test is called "Test 2", the Nitrendipine Binding Assay is called "Test 1" and the Spontaneously Hypertensive Rat test is called "Test 3".

[2] = target: calcium channel antagonist receptors (rabbit heart) (Oryctolagus cuniculus, UniProt P15381); assay: Nitrendipine Binding Assay (Test 1); set-up: species or system rabbit (female New Zealand white); conditions: 3H-nitrendipine (0.05-0.50 nM), rabbit heart membrane, 90 min at 4° C., pH 7.4; read-out: Test 1 (IC50): concentration required to achieve 50% displacement of specifically-bound nitrendipine
Sequence of calcium channel antagonist receptors (rabbit heart) (P15381 whole entry, other chains not shown): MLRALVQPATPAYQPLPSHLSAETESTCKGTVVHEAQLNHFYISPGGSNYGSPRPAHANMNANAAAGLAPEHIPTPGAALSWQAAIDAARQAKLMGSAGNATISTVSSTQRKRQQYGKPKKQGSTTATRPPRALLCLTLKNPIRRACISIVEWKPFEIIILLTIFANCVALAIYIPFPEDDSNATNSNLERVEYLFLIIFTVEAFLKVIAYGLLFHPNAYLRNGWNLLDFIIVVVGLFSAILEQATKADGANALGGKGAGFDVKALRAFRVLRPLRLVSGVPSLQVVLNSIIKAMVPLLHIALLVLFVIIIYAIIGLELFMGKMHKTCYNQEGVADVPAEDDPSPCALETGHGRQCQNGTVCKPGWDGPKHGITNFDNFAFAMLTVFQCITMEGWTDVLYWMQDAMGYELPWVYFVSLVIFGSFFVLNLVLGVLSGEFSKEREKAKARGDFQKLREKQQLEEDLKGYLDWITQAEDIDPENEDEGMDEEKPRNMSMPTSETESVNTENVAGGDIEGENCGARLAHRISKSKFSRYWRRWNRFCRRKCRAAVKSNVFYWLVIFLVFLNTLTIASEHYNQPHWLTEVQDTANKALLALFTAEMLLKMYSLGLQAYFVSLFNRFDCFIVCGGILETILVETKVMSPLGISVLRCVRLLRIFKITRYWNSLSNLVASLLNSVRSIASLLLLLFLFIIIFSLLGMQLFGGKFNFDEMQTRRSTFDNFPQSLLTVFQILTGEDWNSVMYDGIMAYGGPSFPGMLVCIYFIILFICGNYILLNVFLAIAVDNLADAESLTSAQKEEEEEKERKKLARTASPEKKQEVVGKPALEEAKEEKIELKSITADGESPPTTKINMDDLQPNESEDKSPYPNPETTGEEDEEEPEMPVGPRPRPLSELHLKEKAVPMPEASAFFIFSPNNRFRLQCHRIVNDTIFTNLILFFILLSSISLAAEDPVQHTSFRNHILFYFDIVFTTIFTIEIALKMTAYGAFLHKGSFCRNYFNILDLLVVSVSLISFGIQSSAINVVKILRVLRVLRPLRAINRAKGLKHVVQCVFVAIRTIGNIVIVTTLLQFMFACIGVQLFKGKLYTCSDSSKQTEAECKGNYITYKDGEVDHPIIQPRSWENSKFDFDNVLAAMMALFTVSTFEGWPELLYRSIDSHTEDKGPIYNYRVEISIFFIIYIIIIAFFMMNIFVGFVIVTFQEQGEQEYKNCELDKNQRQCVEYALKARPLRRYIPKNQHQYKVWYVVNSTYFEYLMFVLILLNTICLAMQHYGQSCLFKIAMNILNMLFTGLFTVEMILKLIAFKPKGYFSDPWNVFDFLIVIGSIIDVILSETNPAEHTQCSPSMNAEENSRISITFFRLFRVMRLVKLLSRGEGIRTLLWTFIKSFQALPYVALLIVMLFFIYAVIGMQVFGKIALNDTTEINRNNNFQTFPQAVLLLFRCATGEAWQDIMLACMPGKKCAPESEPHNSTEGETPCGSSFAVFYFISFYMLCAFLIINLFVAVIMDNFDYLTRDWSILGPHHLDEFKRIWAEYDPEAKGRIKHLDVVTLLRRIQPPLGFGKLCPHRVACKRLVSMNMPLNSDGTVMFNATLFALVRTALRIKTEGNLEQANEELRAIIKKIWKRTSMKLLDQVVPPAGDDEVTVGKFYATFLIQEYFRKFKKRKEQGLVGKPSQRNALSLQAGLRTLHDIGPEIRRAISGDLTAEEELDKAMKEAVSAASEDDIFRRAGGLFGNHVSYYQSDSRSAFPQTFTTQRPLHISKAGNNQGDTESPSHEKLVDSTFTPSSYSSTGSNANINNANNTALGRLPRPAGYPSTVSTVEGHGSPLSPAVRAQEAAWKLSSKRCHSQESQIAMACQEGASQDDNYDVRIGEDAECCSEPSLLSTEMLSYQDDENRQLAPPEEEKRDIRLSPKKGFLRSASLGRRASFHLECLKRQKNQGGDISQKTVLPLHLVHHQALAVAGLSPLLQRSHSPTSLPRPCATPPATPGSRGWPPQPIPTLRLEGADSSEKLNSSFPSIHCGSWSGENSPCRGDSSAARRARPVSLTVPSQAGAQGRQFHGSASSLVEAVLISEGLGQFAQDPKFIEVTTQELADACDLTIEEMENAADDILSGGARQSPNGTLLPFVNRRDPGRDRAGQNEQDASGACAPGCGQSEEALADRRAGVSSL
Sequence of calcium channel antagonist receptors (rabbit heart) (P13806 27-960 partner limits assumed, other chains not shown): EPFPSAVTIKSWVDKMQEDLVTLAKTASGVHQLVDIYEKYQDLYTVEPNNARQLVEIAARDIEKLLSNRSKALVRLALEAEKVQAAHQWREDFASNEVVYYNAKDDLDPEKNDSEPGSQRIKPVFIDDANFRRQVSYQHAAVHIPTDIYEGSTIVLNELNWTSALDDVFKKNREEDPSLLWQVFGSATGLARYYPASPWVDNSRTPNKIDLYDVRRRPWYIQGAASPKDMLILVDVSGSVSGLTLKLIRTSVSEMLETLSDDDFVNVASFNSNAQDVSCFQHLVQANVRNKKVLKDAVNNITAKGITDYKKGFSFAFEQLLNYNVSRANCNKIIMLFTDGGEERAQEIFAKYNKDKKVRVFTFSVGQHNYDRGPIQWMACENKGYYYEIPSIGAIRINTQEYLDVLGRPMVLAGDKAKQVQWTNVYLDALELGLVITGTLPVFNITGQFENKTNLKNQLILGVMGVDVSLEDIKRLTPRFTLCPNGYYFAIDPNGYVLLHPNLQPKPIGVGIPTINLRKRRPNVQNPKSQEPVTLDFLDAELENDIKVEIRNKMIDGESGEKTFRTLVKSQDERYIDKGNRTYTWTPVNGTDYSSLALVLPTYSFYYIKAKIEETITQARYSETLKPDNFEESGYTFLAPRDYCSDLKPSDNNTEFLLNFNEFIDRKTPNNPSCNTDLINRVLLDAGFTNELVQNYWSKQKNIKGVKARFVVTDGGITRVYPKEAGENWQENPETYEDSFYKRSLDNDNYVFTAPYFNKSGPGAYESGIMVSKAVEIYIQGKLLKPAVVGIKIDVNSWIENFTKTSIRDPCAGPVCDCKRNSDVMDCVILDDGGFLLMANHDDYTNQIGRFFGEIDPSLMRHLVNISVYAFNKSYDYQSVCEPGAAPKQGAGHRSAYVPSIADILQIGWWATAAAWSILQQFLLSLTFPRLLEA
Sequence of calcium channel antagonist receptors (rabbit heart) (P13806 961-1106 partner limits assumed, other chains not shown): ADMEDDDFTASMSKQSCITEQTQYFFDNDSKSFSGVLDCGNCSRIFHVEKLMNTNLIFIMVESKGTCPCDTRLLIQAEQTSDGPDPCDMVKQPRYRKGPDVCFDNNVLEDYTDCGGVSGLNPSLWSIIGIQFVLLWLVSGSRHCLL

[3] = test system: vascular smooth muscle tissue from the rabbit aorta; assay: Rabbit Potassium Depolarized Blood Vessel Test (Test 2); assay type: cell-based; conditions: Oryctolagus cuniculus, 10 min; test compound 10^-6 M, 10 minute exposure, 30 mM potassium chloride, rabbit aorta strips, 37° C.; read-out: Test 2 (% Inhibition) of potassium-induced contraction
Text: This tissue can be made to contract when exposed to a depolarizing solution containing an elevated potassium ion concentration and normal amounts of calcium ions. A test compound added to the solution produces a dose-dependent relaxation of the contracted rabbit aortic tissue which gives an indication of calcium antagonist activity of the test compound. This test is described below as the "Rabbit Potassium Depolarized Blood Vessel Test".
In the Rabbit Potassium Depolarized Blood Vessel Test, rabbits are killed by cervical dislocation, and the thoracic aorta is removed. Helical strips, approximately 30-40 mm in length, are cut from the aorta and are suspended in tissue baths of oxygenated Krebs bicarbonate buffer at 37° C. under a resting tension of 4 g. After an equilibration period of approximately 1-2 hours, the strips are challenged with a 30 mM potassium chloride solution and the peak contraction is measured. Following measurement of the peak contraction, the strips are washed and re-equilibrated for an hour in oxygenated Krebs bicarbonate buffer. After the re-equilibration of the aorta strips, the test compound was added to the bath at a concentration of 10-^6 M and the strips were allowed to stand for 10 minutes. After the 10 minute exposure to the test compound, the tissue strips were rechallenged with 30 mM potassium chloride solution and the maximum contraction was measured. The specificity of any inhibition of contraction is determined by addition of 10 mM phenylephrine.
The percent inhibition of contraction is calculated from the formula: […]
where CT is the peak contraction in the presence of the test compound and Cc is the peak contraction without test compound.
Test results for exemplary compounds of Formula I are provided in Table I below, in which the Rabbit Potassium Depolarized Blood Vessel Test is called "Test 2", the Nitrendipine Binding Assay is called "Test 1" and the Spontaneously Hypertensive Rat test is called "Test 3".

SMILES	Test 3 (mmHg, 100 mpk): average of the peak decrease in systolic blood pressure [1]	IC50 [2]	inhibition at 1 µM [3]
CC1=C(C(=O)OCCN(C)Cc2ccccc2)C(c2ccco2)c2c(n(C)c(=O)n(C)c2=O)N1.Cl.O (single isomer, unassigned) [Example III, 2-(N-Benzyl-N-methylamino)ethyl 5-(Furan-2-yl)-5,8-dihydro-1,3,7-trimethyl-2,4-dioxopyrido[2,3-d]pyrimidine-6-carboxylate Monohydrochloride Monohydrate]	-22 mmHg	6000 nM	–
CC1=C(C(=O)OCCN(C)Cc2ccccc2)C(c2ccco2)c2c(n(C)c(=O)n(C)c2=O)N1 (single isomer, unassigned) [Example XVI, 2-(N-benzyl-N-methylamino)ethyl-5-(furan-2-yl)-5,8-dihydro-1,3,7-trimethyl-2,4-dioxopyrido [2,3-d]pyrimidine-6-carboxylate]	–	2000 nM	–
COC(=O)C1=C(C)Nc2c(c(=O)n(C)c(=O)n2C)C1c1cccc([N+](=O)[O-])c1 (stereo not shown) [Example I, Methyl 5,8-Dihydro-1,3,7-trimethyl-5-(3-nitrophenyl)-2,4-dioxopyrido[2,3-d]pyrimidine-6-carboxylate]	-11 mmHg	300 nM	54%
COC(=O)C1=C(C)Nc2c(c(=O)n(C)c(=O)n2C)C1c1cccc(Cl)c1 (stereo not shown) [Example II, Methyl 5-(3-Chlorophenyl)-5,8-dihydro-1,3,7-trimethyl-2,4-dioxopyrido[2,3-d]pyrimidine-6-carboxylate]	-31 mmHg	1000 nM	3%
COC(=O)C1=C(C)Nc2c(c(=O)n(C)c(=O)n2C)C1c1ccco1 (stereo not shown) [Example XV]	-22 mmHg	100000 nM	–
CC1=C(C(=O)OCCN(C)Cc2ccccc2)C(c2cccc(C)c2)c2c(n(C)c(=O)n(C)c2=O)N1 (stereo not shown) [Example X]	-12 mmHg	3200 nM	16%
CC1=C(C(=O)OCCN(C)Cc2ccccc2)C(c2cccc([N+](=O)[O-])c2)c2c(n(C)c(=O)n(C)c2=O)N1 (stereo not shown) [IV]	-28 mmHg	230 nM	44%
COc1cccc(C2C(C(=O)OCCN(C)Cc3ccccc3)=C(C)Nc3c2c(=O)n(C)c(=O)n3C)c1 (stereo not shown) [IX]	-57 mmHg	2800 nM	8%
CC1=C(C(=O)OCCN(C)Cc2ccccc2)C(c2cccc(Cl)c2)c2c(n(C)c(=O)n(C)c2=O)N1 (stereo not shown) [VI, 2-(N-benzyl-N-methylaminoethyl) 5-(3-chlorophenyl)-5,8-dihydro-1,3,7-trimethyl-2,4-dioxopyrido[2,3-d]pyrimidine-6-carboxylate]	-50 mmHg	100 nM	52%
CC1=C(C(=O)OCCN(C)Cc2ccccc2)C(c2cccc(F)c2)c2c(n(C)c(=O)n(C)c2=O)N1 (stereo not shown) [VIII]	-47 mmHg	500 nM	48%
CC1=C(C(=O)OCCN(C)Cc2ccccc2)C(c2cccc(Cl)c2)c2c([nH]c(=O)[nH]c2=O)N1 (stereo not shown) [VII]	–	8000 nM	–
CC1=C(C(=O)OCCN(C)Cc2ccccc2)C(c2cccc(C#N)c2)c2c(n(C)c(=O)n(C)c2=O)N1 (stereo not shown) [V]	-31 mmHg	650 nM	26%
CC1=C(C(=O)OCCN(C)Cc2ccccc2)C(c2ccccc2[N+](=O)[O-])c2c(n(C)c(=O)n(C)c2=O)N1 (stereo not shown) [XIII]	-35 mmHg	–	–
CC1=C(C(=O)OCCN(C)Cc2ccccc2)C(c2ccccc2[N+](=O)[O-])c2c(n(C)c(=O)n(C)c2=O)N1 (stereo not shown) [XII]	-16 mmHg	2500 nM	27%
CC1=C(C(=O)OCCN(C)Cc2ccccc2)C(c2ccccc2Cl)c2c(n(C)c(=O)n(C)c2=O)N1 (stereo not shown) [XIV]	-40 mmHg	1000 nM	50%
CC1=C(C(=O)OCCN(C)Cc2ccccc2)C(c2cc(Cl)cc(Cl)c2)c2c(n(C)c(=O)n(C)c2=O)N1 (stereo not shown) [XIX]	-37 mmHg	2300 nM	28%
CC1=C(C(=O)OCCN(C)Cc2ccccc2)C(c2ccccc2)c2c(n(C)c(=O)n(C)c2=O)N1 (stereo not shown) [XI]	-28 mmHg	1300 nM	12%
CC1=C(C(=O)OCCN(C)Cc2ccccc2)C(c2cccc(C(F)(F)F)c2)c2c(n(C)c(=O)n(C)c2=O)N1 (stereo not shown) [XVIII]	-37 mmHg	3400 nM	33%
CC1=C(C(=O)OCCN(C)Cc2ccccc2)C(C2CCCCC2)c2c(n(C)c(=O)n(C)c2=O)N1 (stereo not shown) [XVII]	-30 mmHg	2000 nM	18%
CC1=C(C(=O)OCCBr)C(c2cccc(Cl)c2)c2c(n(C)c(=O)n(C)c2=O)N1 (stereo not shown) [XXIII]	-16 mmHg	78 nM	54%
CC1=C(C(=O)OCCN(C)Cc2ccccc2)C(c2cccc([N+](=O)[O-])c2)c2c([nH]c(=O)[nH]c2=O)N1 (stereo not shown) [XXII]	-11 mmHg	7700 nM	–
CC1=C(C(=O)OCCBr)C(c2cccc([N+](=O)[O-])c2)c2c(n(C)c(=O)n(C)c2=O)N1 (stereo not shown) [XXIV]	-10 mmHg	109 nM	26%
CC1=C(C(=O)OCCCBr)C(c2cccc(Cl)c2)c2c(n(C)c(=O)n(C)c2=O)N1 (stereo not shown) [XXIX]	–	385 nM	44%
CC1=C(C(=O)OCCN(C)Cc2ccccc2)C(c2ccc(C(F)(F)F)cc2)c2c(n(C)c(=O)n(C)c2=O)N1 (stereo not shown) [XXI]	-16 mmHg	2300 nM	6%
CC1=C(C(=O)OCCBr)C(c2ccccc2Cl)c2c(n(C)c(=O)n(C)c2=O)N1 (stereo not shown) [XXVIII]	–	175 nM	23%
CC1=C(C(=O)OCC(F)(F)F)C(c2cccc(Cl)c2)c2c(n(C)c(=O)n(C)c2=O)N1 (stereo not shown) [XXVII]	–	860 nM	–
CC1=C(C(=O)OCCF)C(c2cccc(Cl)c2)c2c(n(C)c(=O)n(C)c2=O)N1 (stereo not shown) [XXVI]	–	890 nM	–
CC1=C(C(=O)OCCBr)C(c2cccc(C(F)(F)F)c2)c2c(n(C)c(=O)n(C)c2=O)N1 (stereo not shown) [XXV]	–	1100 nM	41%
CC1=C(C(=O)OCCN(C)Cc2ccccc2)C(c2cccc(Cl)c2)c2c([nH]c(=S)[nH]c2=O)N1 (stereo not shown) [XX]	-16 mmHg	> 1000 nM	–

From patent US4596805A, “Substituted dioxopyridopyrimidines” (Ortho Pharmaceutical Corporation, priority 1984, dated 1986)
